What all share (format): cell-based
For test [1], the system named is breast tumor (MCF7) cells. As to the kind of experiment: Sulforhodamine in vitro cell growth test, breast tumor cells MCF7. Conditions: 48 h.
Procedure: (§1) Cell lines from tumors of the breast (MCF7), lung (NCI-H460, A549), colon (SW-60, HT29) and CNS (SF-539) were used for the test. The tumor cells were cultured in RPMI 1640 medium containing 7.5% foetal calf serum at 37° C. and 5% CO2. After the cells had grown for 24 hours, they were incubated with the substances to be tested for 48 hours.
(§2) The antineoplastic agents used for the experiments were obtained from Sigma in cell culture quality.
(§3) A Pseudomonas 7A glutaminase-asparaginase modified with polyethylene glycol (DE 41 40 003 A1, WO 94/13817 A1 and WO 02/31498 A2) was used as the glutaminase.
(§4) After a 48 hour incubation period cell growth was determined by means of the absorption of the bound sulforhodamine dye at 575 nm. The percentage growth was calculated as follows: [formula] in which PW denotes percentage growth, C denotes untreated control cells, T denotes the amount of treated cells and the indices 0 and t denote the amount of cells at time 0 and after 48 hours.
In another test the test system is lung tumor (A549) cells. As to the kind of experiment: Sulforhodamine in vitro cell growth test, lung tumor cells A549. The settings on record: 48 h.
A further test deals with colon tumor (HT29) cells. As to the kind of experiment: Sulforhodamine in vitro cell growth test, colon tumor cells HT29. Conditions: 2 μg/ml cis-platinum alone, 48 h.
The subject of test [2] is lung tumor (NCI-H23) cells. Description: Sulforhodamine in vitro cell growth test, lung tumor cells NCI-H23. Conditions: 48 h.
Procedure: as §1, §2, §3, §4

Procedure for colon tumor (HT29) cells: as §1, §2, §3, §4
Procedure for lung tumor (A549) cells: as §1, §2, §3, §4

In the case of `N.N.[Cl][Pt][Cl]` [Cis-platinum, cis-platinum], the results for the tumor cell growth (in test [1] (2 μg/ml cis-platinum alone); with lung tumor (A549) cells (2 μg/ml cis-platinum alone); with colon tumor (HT29) cells) were 86%, 41% and 65%, respectively.

In turn, `N[C@@H](Cc1ccc(N(CCCl)CCCl)cc1)C(=O)O` [Melphalan, melphalan] had a tumor growth in test [2] (68 μg/ml melphalan alone) of 34%.

`COc1cc([C@@H]2c3cc4c(cc3[C@@H](O[C@@H]3O[C@@H]5CO[C@@H](C)O[C@H]5[C@H](O)[C@H]3O)[C@H]3COC(=O)[C@H]23)OCO4)cc(OC)c1O` [Etoposide, etoposide]: the “growth compared to the control” value (in test [1] (2.3 μg/ml etoposide alone); with lung tumor (A549) cells (2.3 μg/ml etoposide alone); in test [2] (2.3 μg/ml etoposide alone)) was “about 40%” each time.

In the case of `CO[C@@]12[C@H](COC(N)=O)C3=C(C(=O)C(C)=C(N)C3=O)N1C[C@@H]1N[C@@H]12` [Mitomycin, mitomycin], the “growth compared to the control” value in test [1] (0.026 μg/ml mitomycin alone) was 66%.

The record behind these values is patent US20060263346A1, “Combined pharmaceutical preparations for the treatment of cancer, containing glutaminase and antineoplastic anthracyclines or platinum compounds” (priority 2003, published 2006).
